Read-outs that look alike come from different tables or passages of the source.
Legend:
[1] = molecular target: recombinant SARS-CoV-2 Main protease (Mpro) (Severe acute respiratory syndrome coronavirus 2 (2019-nCoV) (SARS-CoV-2), UniProt P0DTD1); experiment: Cov Mpro Biochemical IC50 Assay
[2] = system: SARS-CoV-2-NLuc; experiment: microbe, parasite or virus in culture; assay type: cell-based, SARS Coronavirus 2
[3] = recombinant SARS-CoV-2 Mpro, fluorogenic peptide substrate, read-out: MPro IC50
[4] = Severe acute respiratory syndrome coronavirus, 48 h; read-out: MPro EC50
[5] = recombinant SARS-CoV-2 Mpro 7.5 nM, fluorogenic peptide substrate 40 μM, read-out: MPro IC50
[6] = Severe acute respiratory syndrome coronavirus, 48 h, read-out: MPro EC50

SMILES | IC50 [1, 5] [nM] | EC50 [2, 6] [nM] | also measured
O=c1[nH]c2cc(-c3c(Cl)cccc3Cl)sc2c(=O)n1-c1cncc(C2CC2)c1 [Example 370, 3-(5-cyclopropylpyridin-3-yl)-6-(2,6-dichlorophenyl)thieno[3,2-d]pyrimidine-2,4(1H,3H)-dione] | – | – | IC50 [1, 3]: 273 nM; EC50 [2, 4]: 388 nM
COc1cc(-c2cc3c(s2)c(=O)n(-c2cncc4nc(C(F)(F)F)n(C)c24)c(=O)n3CCC#N)c(C#N)cc1F [Example 859] | 62.8 | 169 | –
O=c1[nH]c2cc(-c3ccccc3)ccc2c(=O)n1-c1cncc2ccccc12 [Example 25] | – | 5040 | IC50 [1, 3]: 1410 nM
COCCn1c(=O)n(-c2cncc3ccccc23)c(=O)c2sc(-c3ccccc3Cl)cc21 [Example 470, 6-(2-chlorophenyl)-3-(4-isoquinolyl)-1-(2-methoxyethyl)thieno[3,2-d]pyrimidine-2,4-dione] | 46.8 | 71.3 | –
CNC(=O)CCn1c(=O)n(-c2cncc3ccccc23)c(=O)c2sc(-c3ccccc3Cl)cc21 [Example 613, 3-(6-(2-chlorophenyl)-3-(isoquinolin-4-yl)-2,4-dioxo-3,4-dihydrothieno[3,2-d]pyrimidin-1(2H)-yl)-N-methylpropanamide] | 68.6 | – | EC50 [2, 4]: 91.9 nM
COc1cc(-c2cc3[nH]c(=O)n(-c4cncc5nccn45)c(=O)c3s2)c(Cl)cc1F [Example 978] | 33.4 | – | EC50 [2, 4]: 369 nM
N#CCCn1c(=O)n(-c2cncc(F)c2)c(=O)c2sc(-c3ccccc3C#N)cc21 [Example 864] | 53.2 | – | EC50 [2, 4]: 150 nM
CS(=O)(=O)c1cccc(-c2cccc(Cl)c2-c2ccc3c(=O)n(-c4cncc5ccccc45)c(=O)[nH]c3c2)c1 [Example 269] | – | < 5.29 | IC50 [1, 3]: 10.7 nM
COC1CCN(c2ccc3cncc(-n4c(=O)[nH]c5cc(-c6ccccc6Cl)sc5c4=O)c3c2)CC1 [Example 401] | 3.84 | 10.6 | –
COc1cc(-c2cc3[nH]c(=O)n(-c4cncc5cccc(F)c45)c(=O)c3s2)c(Cl)cc1F (single isomer, unassigned) [Example 899, 6-(2-chloro-4-fluoro-5-methoxyphenyl)-3-(5-fluoroisoquinolin-4-yl)thieno[3,2-d]pyrimidine-2,4(1H,3H)-dione] | 4.03 | – | EC50 ([2]; read-out: MPro EC50): 3.13 nM
O=c1[nH]c2cc(-c3c(Cl)cccc3-c3cn4ncnc4c4c3CCC4)sc2c(=O)n1-c1cncc2ccccc12 [Example 520] | < 2.54 | 14.6 | –
O=c1[nH]c2cc(-c3cc(Cl)ccc3Cl)ccc2c(=O)n1-c1cncc2ccccc12 [Example 60] | – | 227 | IC50 [1, 3]: 192 nM
Cc1ncccc1-c1ccc2c(=O)n(-c3cncc4ccccc34)c(=O)[nH]c2c1 [Example 63] | – | 8440 | IC50 [1, 3]: 5850 nM
COc1ccc(-c2cc(C)c3ncnn3c2)c(-c2ccc3c(=O)n(-c4cncc5ccccc45)c(=O)[nH]c3c2)c1 [Example 568, 3-(4-isoquinolyl)-7-[5-methoxy-2-(8-methyl-[1,2,4]triazolo[1,5-a]pyridin-6-yl)phenyl]-1H-quinazoline-2,4-dione] | 5670 | 2640 | –
Cn1ncc2cncc(-n3c(=O)c4sc(C5C(Cl)=CC(Cl)=C6OCCC65)cc4n(CCC#N)c3=O)c21 (stereo not shown) [Example 1021] | 15.5 | 37.2 | –
Cc1ccc2nn(C)cc2c1-c1cc2[nH]c(=O)n(-c3cncc4cnn(C)c34)c(=O)c2s1 [Example 1015] | 50.9 | 597 | –
O=c1[nH]c2cc(-c3c(Cl)cccc3OCc3cscn3)ccc2c(=O)n1-c1cncc2ccccc12 [Example 471, 7-[2-chloro-6-(thiazol-4-ylmethoxy)phenyl]-3-(4-isoquinolyl)-1H-quinazoline-2,4-dione] | 97.2 | – | EC50 ([2]; read-out: MPro EC50): 478 nM
COc1ccc(Cl)c(-c2cc3[nH]c(=O)n(-c4cncc5ccc(C(F)F)cc45)c(=O)c3s2)c1 [Example 227] | – | 25 | IC50 [1, 3]: 11.3 nM
COc1cc(Cl)c(-c2cc3c(s2)c(=O)n(-c2cncc4cnn(C)c24)c(=O)n3CCC#N)cc1Cl [Example 791] | 6.98 | 9.04 | –
COc1cc(-c2cc3[nH]c(=O)n(-c4cncc5ccc(F)cc45)c(=O)c3s2)c(Cl)cc1F [Example 763] | 10.2 | 13.4 | –
O=c1[nH]c2cc(-c3ccccc3Cl)sc2c(=O)n1-c1cncc2ccc(N3CC(F)(F)OC(F)(F)C3)cc12 [Example 228] | – | 73.1 | IC50 [1, 3]: 294 nM
COc1ccc(Cl)c(-c2cc3c(s2)c(=O)n(-c2cncc4ccccc24)c(=O)n3CC#N)c1 (atropisomer, axis not shown) [Example 702] | < 2.98 | 2.4 | –

SMILES | IC50 [1, 5] [nM] | EC50 [2, 6] [nM] | also measured
COc1cc(-c2cc3[nH]c(=O)n(-c4cnnc5ccccc45)c(=O)c3s2)c(Cl)cc1F [Example 745] | 92 | – | EC50 [2, 4]: 257 nM
COc1cc(-c2cc3c(s2)c(=O)n(-c2cnccc2C(F)(F)F)c(=O)n3CCC#N)c(Cl)cc1F [Example 861] | 35.8 | 68.9 | –
COc1cc(-c2cc3c(s2)c(=O)n(-c2cccnn2)c(=O)n3CCC#N)c(Cl)cc1F [Example 989] | 7.31 | 19.6 | –
COc1cc(-c2cc3c(s2)c(=O)n(-c2cncc4cnn(C)c24)c(=O)n3CCC#N)c(C#N)cc1F (single isomer, unassigned) [Example 1003, 2-[1-(2-cyanoethyl)-3-(1-methylpyrazolo[4,3-c]pyridin-7-yl)-2,4-dioxo-thieno[3,2-d]pyrimidin-6-yl]-5-fluoro-4-methoxy-benzonitrile] | 2.83 | – | EC50 ([2]; read-out: MPro EC50): 5.66 nM
N#CCCn1c(=O)n(-c2cncc3ccccc23)c(=O)c2sc(-c3c(Cl)cccc3-c3cncc(C#N)c3)cc21 [Example 935] | 14.3 | 24.6 | –
COc1cc(-c2cc3[nH]c(=O)n(-c4cncc5c(C#N)nn(C)c45)c(=O)c3s2)c(Cl)cc1F [Example 977] | 21.2 | 101 | –
N#CCCn1c(=O)n(-c2cncc3ccccc23)c(=O)c2sc(-c3ccccc3C#N)cc21 (single isomer, unassigned) [Example 964, 2-(1-(2-cyanoethyl)-3-(isoquinolin-4-yl)-2,4-dioxo-1,2,3,4-tetrahydrothieno[3,2-d]pyrimidin-6-yl)benzonitrile] | 62.5 | – | EC50 ([2]; read-out: MPro EC50): 87 nM
COc1cc(-c2cc3[nH]c(=O)n(-c4cncc5ccn(C)c45)c(=O)c3s2)c(Cl)cc1F (single isomer, unassigned) [Example 958, 6-(2-chloro-4-fluoro-5-methoxyphenyl)-3-(1-methyl-1H-pyrrolo[3,2-c]pyridin-7-yl)thieno[3,2-d]pyrimidine-2,4(1H,3H)-dione] | 11.2 | – | EC50 ([2]; read-out: MPro EC50): 13.3 nM
COc1cnc(C#N)c(-c2cc3c(s2)c(=O)n(-c2cncc4ccccc24)c(=O)n3CCC#N)c1 (single isomer, unassigned) [Example 1093, 3-(1-(2-cyanoethyl)-3-(isoquinolin-4-yl)-2,4-dioxo-1,2,3,4-tetrahydrothieno[3,2-d]pyrimidin-6-yl)-5-methoxypicolinonitrile] | 104 | – | EC50 ([2]; read-out: MPro EC50): 160 nM
COc1cc(-c2cc3c(s2)c(=O)n(-c2c(C)ccnc2F)c(=O)n3CCC#N)c(Cl)cc1F [Example 916] | 11.5 | 30.3 | –
COc1cc(-c2cc3c(s2)c(=O)n(-c2cncc4ccsc24)c(=O)n3CCC#N)c(Cl)cc1F [Example 654] | 3.87 | 2.42 | –
Cn1ncc2cncc(-n3c(=O)c4sc(-c5cc(F)c(F)cc5Cl)cc4n(CCC#N)c3=O)c21 (single isomer, unassigned) [Example 1077, 3-[6-(2-chloro-4,5-difluoro-phenyl)-3-(1-methylpyrazolo[4,3-c]pyridin-7-yl)-2,4-dioxo-thieno[3,2-d]pyrimidin-1-yl]propanenitrile] | 485 | – | EC50 ([2]; read-out: MPro EC50): > 1000 nM
O=c1c2sc(-c3ccccc3Cl)cc2n(Cc2cccnc2)c(=O)n1-c1cncc2ccccc12 [Example 156] | – | 171 | IC50 [1, 3]: 167 nM
COc1cc(-c2cc3[nH]c(=O)n(-c4cncc5ccccc45)c(=O)c3cc2OC)c(C#N)cc1F (single isomer, unassigned) [Example 571, 5-fluoro-2-[3-(4-isoquinolyl)-6-methoxy-2,4-dioxo-1H-quinazolin-7-yl]-4-methoxy-benzonitrile] | 77.1 | – | EC50 ([2]; read-out: MPro EC50): 171 nM
COc1cc(-c2cc3c(s2)c(=O)n(-c2cncc(N(C)C)c2)c(=O)n3CCC#N)c(Cl)cc1F [Example 874] | 41.4 | 204 | –
COc1cnc(C#N)c(-c2cc3c(s2)c(=O)n(-c2cncc(C)c2)c(=O)n3CCC#N)c1 [Example 887] | 10.4 | – | EC50 [2, 4]: 65.4 nM
COc1ccc(Cl)c(-c2cc3[nH]c(=O)n(-c4cncc5ccc(OC)cc45)c(=O)c3s2)c1 [Example 625] | 6.91 | 18.1 | –
COc1ccc(C#N)c(-c2cc3[nH]c(=O)n(-c4cncc5c4CCCO5)c(=O)c3s2)c1 [Example 598] | 29.6 | 150 | –
Cc1cccc(-c2cc3[nH]c(=O)n(-c4cncc5ccccc45)c(=O)c3s2)c1Cl [Example 11] | – | 638 | IC50 [1, 3]: 4820 nM
COc1cc(-c2cc3[nH]c(=O)n(-c4cncc5ccccc45)c(=O)c3cc2F)c(Cl)cc1F [Example 650, 7-(2-chloro-4-fluoro-5-methoxy-phenyl)-6-fluoro-3-(4-isoquinolyl)-1H-quinazoline-2,4-dione] | – | – | IC50 ([1]; MPro IC50, recombinant SARS-CoV-2 Mpro 7.5 nM, fluorogenic peptide substrate 40 μM): 31.7 nM; EC50 [2, 4]: 33.9 nM
Cc1nnc2n1CCN(c1ccc3cncc(-n4c(=O)[nH]c5cc(-c6ccccc6Cl)sc5c4=O)c3c1)C2 [Example 396] | 14.9 | 3010 | –
O=c1[nH]c2cc(-c3ccccc3)ncc2c(=O)n1-c1cncc2ccccc12 [Example 164] | – | 12500 | IC50 [1, 3]: 7880 nM

Reference: US20240116946A1 (Gilead Sciences, Inc., priority 2022, published 2024)
